Experimental data from patent US20130142866A1, “COMPOSITIONS AND METHODS FOR IMPROVED ORGAN TRANSPLANT PRESERVATION AND ACCEPTANCE” (NOVALIQ GMBH, priority 2010, published 2013).
Converted amounts (≈) assume the structure as drawn. “Also recorded” adds a separate entry of the source.

Tests used:
freshly isolated T-cells = assay: T-cell proliferation, anti-CD3/anti-CD28 activation, 3H-thymidine incorporation; format: cell-based
Experimental: A cell-culture system was used in which freshly isolated T-cells were polyclonally activated by anti-CD3/anti-CD28 beads. The cells were allowed to proliferate for at least 10 days in the presence or absence of different dilutions of the composition of the invention. T-cell proliferation was assessed on day 3, 5, 7 and 10 by means of 3H-thymidine incorporation. In this model, T-cell proliferation is maximal at day 3 and gradually declines at day 10.
The experiments were repeated, except that freshly isolated T-cells were stimulated with anti-CD3/antio-CD28 antibodies in the presence of the composition diluted to a concentration of 50 μM of N-octanoyl dopamine and various concentrations of ciclosporin A or tacrolimus. Similar concentrations of ciclosporin A or tacrolimus were also tested in the absence of the composition.

[1] = Solubilisation of N-octanoyl dopamine by polysorbates; format: physicochemical; conditions: 0.5 wt.-% polysorbate 20 or polysorbate 80 solution, aqueous with cosolvent or surfactant or cyclodextrin; 0.5 wt.-% polysorbate 20 or polysorbate 80, individually; read-out: amount of N-octanoyl dopamine solubilised
Source text: In one particular embodiment, the amount of amphiphilic excipient is at least about 0.05 wt.-%. According to a further embodiment, the amount is from about 0.1 wt.-% to about 30 wt.-%, or from about 0.5 wt.-% to about 20 wt.-%, respectively. […] However, if the composition is to be used as a concentrate to be added to a commercial solution for tissue and organ preservation, the concentrate itself may also comprise the amphiphilic excipient at a relatively high concentration, taking into account the dilution factor. In a further embodiment, the ratio of N-octanoyl dopamine to the amphiphilic excipient is selected in the range from about 5:1 to about 1:50.

[2] = Compatibility with organ preservation solutions (UW, HTK); format: physicochemical; conditions: usual behaviour, leading to brownish-pink colour
Experimental: Two samples of the formulation of example 4 having a N-octanoyl dopamine concentration of 11.16 mg/mL were individually mixed with either University of Wisconsin solution (Viaspan, or UW) or histidine-tryptophan-ketoglutarate (HTK) solution (Custodiol) at a volume ratio of 1:4 (1 part of the inventive composition plus 4 parts of the conventional solution).

[3] = test system: Human umbilical vein endothelial cells (HUVEC) stimulated with TNF-α; assay: TNF-α-mediated inflammation in HUVEC (gene expression profiling, qPCR, Western blotting, NF-κB activation); format: cell-based
Experimental: Human umbilical vein endothelial cells (HUVEC) were stimulated with TNF-α (tumour-necrosis-factor alpha) in the absence or presence of various concentrations of the N-octanoyl dopamine formulation. Affymetrix Gene Expression Profiling, quantitative PCR, Western-blotting and NF-κB activation were performed to assess the anti-inflammatory potential of the composition of the invention. As a comparator, a surfactant-free aqueous dispersion of N-octanoyl dopamine, which is not an embodiment of the invention, was also tested.

Cardiomyocytes = assay: Cold storage injury of cardiomyocytes (ATP, LDH release, contraction rate); format: cell-based, rats
Experimental: Cardiomyocytes were freshly isolated from new born rats and cultured for 3 days. […] ATP levels and LDH release was measured after 8 hours of cold preservation and hereafter cardiomyocytes were re-warmed and the contraction rate per well and ATP regeneration were determined.

For `C=CC[C@@H]1/C=C(\C)C[C@H](C)C[C@H](OC)[C@H]2O[C@@](O)(C(=O)C(=O)N3CCCC[C@H]3C(=O)O[C@H](/C(C)=C/[C@@H]3CC[C@@H](O)[C@H](OC)C3)[C@H](C)[C@@H](O)CC1=O)[C@H](C)C[C@@H]2OC` [tacrolimus, reference compound], the “concentration of maximal inhibition of T-cell proliferation” value (freshly isolated T-cells; calcineurin inhibitor alone, absence of the composition) was 1 µM and the “ciclosporin A or tacrolimus concentration still giving complete inhibition of T-cell proliferation” value (freshly isolated T-cells; in the presence of 50 μM N-octanoyl dopamine) was 1 nM.

With `CCCCCCCC(=O)NCCc1ccc(O)c(O)c1` [N-octanoyl dopamine, N-octanoyl-4-(2-aminoethyl)benzene-1,2-diol] the solubility [1] was 40 mM (≈ 11.2 mg/mL), the T-cell proliferation (freshly isolated T-cells; 25 μM N-octanoyl dopamine) was “without effect” and the T-cell proliferation (freshly isolated T-cells; 50 μM N-octanoyl dopamine) was “inhibited T-cell proliferation at day 3; also recorded: only partly inhibited T-cell proliferation at day 3 but not thereafter”. The “reduction of the amount of calcineurin inhibitor required for complete T-cell suppression” value (freshly isolated T-cells; 50 μM N-octanoyl dopamine) was “at least 1000 fold”, the T-cell proliferation (freshly isolated T-cells; 100 μM N-octanoyl dopamine) was “inhibited at day 3, day 5 and partly at day 7” and the “NFκB and AP-1 in T-cells” value (freshly isolated T-cells; downstream of early T-cell receptor signalling events) was “inhibition”. The “inhibition of T-cell proliferation after oxidation / without redox activity” value (freshly isolated T-cells; oxidation of N-octanoyl dopamine, or compounds lacking redox activity) was “abrogated”, the “oxidation of N-octanoyl dopamine when mixed with UW or HTK” value [2] was “occurs very rapidly” and the HO-1 expression [3] was “strongly upregulated”. For the same molecule, the “concentration at which HO-1 was significantly induced” value [3] was 1 µM and the “concentration required for inhibition of VCAM-1 expression” value [3] was 50 µM.

With `NCCc1ccc(O)c(O)c1` [dopamine] the “LDH-release after cold storage” value (Cardiomyocytes; 8 hours at 4° C., FIG. 2) was “inhibited”, the “ATP level after cold storage” value (Cardiomyocytes; 8 hours at 4° C., compared with untreated cells, FIG. 1) was “dose-dependent mitigation of ATP loss” and the “regeneration of ATP after re-warming” value (Cardiomyocytes; after 8 hours at 4° C., compared to untreated cells) was “much faster”. The “contraction rate after re-warming” value (Cardiomyocytes; after 8 hours at 4° C., treated cells) was “significantly improved rate”.
